From US8258114B2, “Modulation of glucose-6-phosphatase translocase expression” (Isis Pharmaceuticals, Inc., priority 2004, dated 2012)
Oligonucleotides are written 5' to 3', each unit as a sugar letter and its base; * is a phosphorothioate linkage, no mark a phosphodiester; rarer units and linkages stand in square brackets, end groups in braces. Plain capitals give the bases only. e = 2'-O-(2-methoxyethyl) (MOE); [5mC] = 5-methylcytosine; d = 2'-deoxy (DNA)

Columns and labels:
[1] = tested on: human glucose-6-phosphatase translocase mRNA; test: Antisense inhibition of human glucose-6-phosphatase translocase mRNA in HepG2 cells (Table 11); assay type: cell-based; set-up: concentration or dose not given beside the values; conditions: LIPOFECTIN, mRNA by real-time PCR
Summary of the method: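 HepG2 cells at 65-75% confluency transfected with 2′-MOE gapmer oligonucleotides using LIPOFECTIN (2.5 or 3 μg/mL per 100 nM oligo) for 4-7 h and harvested 16-24 h later. Target mRNA measured by RT real-time PCR and normalized to GAPDH or RiboGreen total RNA.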

[2] = tested on: human glucose-6-phosphatase translocase mRNA; test: Antisense inhibition of human glucose-6-phosphatase translocase mRNA in T-24 cells, real-time PCR (Table 4); assay type: cell-based; conditions: 100 nM oligonucleotide, LIPOFECTIN, mRNA by real-time PCR
Protocol: The transitional cell bladder carcinoma cell line T-24 was obtained from the American Type Culture Collection (ATCC) (Manassas, Va.). T-24 cells were routinely cultured in complete McCoy's 5A basal media (Invitrogen Life Technologies, Carlsbad, Calif.) supplemented with 10% fetal bovine serum (Invitrogen Life Technologies, Carlsbad, Calif.). Cells were routinely passaged by trypsinization and dilution when they reached approximately 90% confluence. Cells were seeded into 96-well plates (Falcon-Primaria #3872) at a density of approximately 4000-6000 cells/well for use in oligomeric compound transfection experiments. When cells reached 65-75% confluency, they were treated with oligonucleotide. […] This transfection mixture was incubated at room temperature for approximately 0.5 hours. For cells grown in 96-well plates, wells were washed once with 100 μL OPTI-MEMTM-1 and then treated with 130 μL of the transfection mixture. Cells grown in 24-well plates or other standard tissue culture plates are treated similarly, using appropriate volumes of medium and oligonucleotide. Cells are treated and data are obtained in duplicate or triplicate. After approximately 4-7 hours of treatment at 37° C., the medium containing the transfection mixture was replaced with fresh culture medium. Cells were harvested 16-24 hours after oligonucleotide treatment. […] Prior to quantitative PCR analysis, primer-probe sets specific to the target gene being measured were evaluated for their ability to be “multiplexed” with a GAPDH amplification reaction. After isolation the RNA is subjected to sequential reverse transcriptase (RT) reaction and real-time PCR, both of which are performed in the same well. RT and PCR reagents were obtained from Invitrogen Life Technologies (Carlsbad, Calif.). […] The RT reaction was carried out by incubation for 30 minutes at 48° C. Following a 10 minute incubation at 95° C. to activate the PLATINUM® Taq, 40 cycles of a two-step PCR protocol were carried out: 95° C. for 15 seconds (denaturation) followed by 60° C. for 1.5 minutes (annealing/extension). Gene target quantities obtained by RT, real-time PCR were normalized using either the expression level of GAPDH, a gene whose expression is constant, or by quantifying total RNA using RiboGreenTM (Molecular Probes, Inc. Eugene, Oreg.). GAPDH expression was quantified by RT, real-time PCR, by being run simultaneously with the target, multiplexing, or separately. Total RNA was quantified using RiboGreenTM RNA quantification reagent (Molecular Probes, Inc. Eugene, Oreg.). A series of oligomeric compounds was designed to target different regions of human glucose-6-phosphatase translocase, using published sequences cited in Table 1. All compounds in Table 4 are chimeric oligonucleotides (“gapmers”) 20 nucleotides in length, composed of a central “gap” region consisting of 10 2'-deoxynucleotides, which is flanked on both sides ([NT]) by five-nucleotide “wings”. The wings are composed of 2'-O-(2-methoxyethyl) nucleotides, also known as 2'-MOE nucleotides. The internucleoside (backbone) linkages are phosphorothioate throughout the oligonucleotide. All cytidine residues are 5-methylcytidines. The compounds were analyzed for their effect on gene target mRNA levels by quantitative real-time PCR as described in other examples herein, using the following primer-probe set designed to hybridize to human glucose-6-phosphatase translocase: Forward primer: [NT] (incorporated herein as SEQ ID NO: 24) Reverse primer: [NT] (incorporated herein as SEQ ID NO: 25) And the PCR probe was: […] (incorporated herein as SEQ ID NO: 26), where FAM is the fluorescent dye and TAMRA is the quencher dye. Data are from experiments in which T-24 cells were treated with 100 nM of the antisense oligonucleotides of the present invention using LIPOFECTINTM. A reduction in expression is expressed as percent inhibition in Table 4. If present, “N.D.” indicates “not determined”. The control oligomeric compound used was SEQ ID NO: 11. […]

[3] = Body weight and tissue weights of normal Sprague-Dawley rats (Table 13); conditions: for Spleen weight / Fat weight / Kidney weight / Liver weight: end of study
Protocol: For three weeks, male Sprague-Dawley rats were injected twice-weekly with doses of 12.5 mg/kg, 25 mg/kg, or 50 mg/kg of ISIS 145760, ISIS 359543, or ISIS 366228. Each treatment group was comprised of 4 animals. Animals which received twice weekly injections of saline served as controls.
Body weight was monitored throughout the study period. […] Tissue weights were also measured at the end of the study.

[4] = Plasma glucose, cholesterol and triglycerides in normal Sprague-Dawley rats (Table 14); assay type: in vivo, rat; set-up: plasma GLUCOSE WK 0 / plasma GLUCOSE WK 3: unit not given beside the values
Protocol: (§1) Each treatment group was comprised of 4 animals.
To further assess the physiological effects resulting from inhibition of target mRNA, the rats were evaluated at the beginning (Wk 0) and at the end (Wk 3) of the treatment period for plasma glucose, plasma cholesterol, and plasma triglyceride levels. Triglycerides and cholesterol were measured by routine clinical analyzer instruments (e.g. Olympus Clinical Analyzer, Melville, N.Y.). Glucose levels were measured using a glucose analyzer, for example a YSI glucose analyzer (YSI Scientific, Yellow Springs, Ohio). Results are presented in Table 14 as the average level of plasma glucose, plasma cholesterol (CHOL), or plasma triglycerides (TRIG) measured per treatment group.

[5] = tested on: glucose-6-phosphatase translocase mRNA; test: Target reduction in liver: rat dose-response study (Table 12); assay type: in vivo; conditions: Sprague-Dawley rats; for % Inhibition, target reduction in liver: three weeks
Protocol: as §1
At the end of the treatment period, animals were sacrificed and target reduction in liver was measured by real-time PCR as described in other examples herein. Results are shown in Table 12 as the average percent reduction in glucose-6-phosphatase translocase levels as compared to saline treated control.

AGGGTGCTCTCCTCCTTCAA (eA*eG*eG*eG*eT*dG*d[5mC]*dT*d[5mC]*dT*d[5mC]*d[5mC]*dT*d[5mC]*d[5mC]*eT*eT*e[5mC]*eA*eA; antisense) [ISIS 194855]
% Inhib [1]: 66%
% Inhib [2]: 57%

CCACCTATATCCAACTGCGC (e[5mC]*e[5mC]*eA*e[5mC]*e[5mC]*dT*dA*dT*dA*dT*d[5mC]*d[5mC]*dA*dA*d[5mC]*eT*eG*e[5mC]*eG*e[5mC]; antisense) [ISIS 194839]
% Inhib [1]: 75%
% Inhib [2]: 83%

CCCACTGACAAACTTGCTGA (e[5mC]*e[5mC]*e[5mC]*eA*e[5mC]*dT*dG*dA*d[5mC]*dA*dA*dA*d[5mC]*dT*dT*eG*e[5mC]*eT*eG*eA; antisense) [ISIS 194850]
% Inhib [1]: 38%
% Inhib [2]: 88%

GTGCTTGGCAATGGTGCTGA (eG*eT*eG*e[5mC]*eT*dT*dG*dG*d[5mC]*dA*dA*dT*dG*dG*dT*eG*e[5mC]*eT*eG*eA; antisense) [ISIS 359543]
Spleen weight ([3]; 12.5 mg/kg twice weekly, saline 0.7): 0.9 grams
Fat weight ([3]; 12.5 mg/kg twice weekly, saline 1.8): 1.4 grams
Kidney weight ([3]; 12.5 mg/kg twice weekly, saline 3): 3 grams
Liver weight ([3]; 12.5 mg/kg twice weekly, saline 15): 15 grams
Body weight ([3]; 12.5 mg/kg twice weekly, week 3, saline 290): 285 grams
Fat weight ([3]; 25 mg/kg twice weekly): 1.3 grams
Kidney weight ([3]; 25 mg/kg twice weekly): 3 grams
Liver weight ([3]; 25 mg/kg twice weekly): 16 grams
Spleen weight ([3]; 25 mg/kg twice weekly): 1.1 grams
Body weight ([3]; 25 mg/kg twice weekly, week 3): 295 grams
Fat weight ([3]; 50 mg/kg twice weekly): 1.0 grams
Kidney weight ([3]; 50 mg/kg twice weekly): 3 grams
Liver weight ([3]; 50 mg/kg twice weekly): 13 grams
Spleen weight ([3]; 50 mg/kg twice weekly): 1.4 grams
Body weight ([3]; 50 mg/kg twice weekly, week 3): 277 grams
Increases in body weights (in words) ([3]; 12.5 to 50 mg/kg, throughout the study): comparable to the increases in body weight observed for saline-treated control animals
plasma cholesterol (CHOL) WK 3 ([4]; 12.5 mg/kg twice weekly, saline 58): 57
plasma triglycerides (TRIG) WK 0 ([4]; 12.5 mg/kg twice weekly, saline 69): 69
plasma cholesterol (CHOL) WK 0 ([4]; 12.5 mg/kg twice weekly, saline 74): 80
plasma GLUCOSE WK 0 ([4]; 12.5 mg/kg twice weekly, saline 135): 138
plasma GLUCOSE WK 3 ([4]; 12.5 mg/kg twice weekly, saline 139): 165
plasma triglycerides (TRIG) WK 3 ([4]; 12.5 mg/kg twice weekly, saline 140): 61
plasma GLUCOSE WK 0 ([4]; 25 mg/kg twice weekly): 138
plasma GLUCOSE WK 3 ([4]; 25 mg/kg twice weekly): 154
plasma cholesterol (CHOL) WK 0 ([4]; 25 mg/kg twice weekly): 82
plasma cholesterol (CHOL) WK 3 ([4]; 25 mg/kg twice weekly): 57
plasma triglycerides (TRIG) WK 0 ([4]; 25 mg/kg twice weekly): 62
plasma triglycerides (TRIG) WK 3 ([4]; 25 mg/kg twice weekly): 37
plasma GLUCOSE WK 0 ([4]; 50 mg/kg twice weekly): 135
plasma GLUCOSE WK 3 ([4]; 50 mg/kg twice weekly): 136
plasma cholesterol (CHOL) WK 0 ([4]; 50 mg/kg twice weekly): 87
plasma cholesterol (CHOL) WK 3 ([4]; 50 mg/kg twice weekly): 54
plasma triglycerides (TRIG) WK 0 ([4]; 50 mg/kg twice weekly): 69
plasma triglycerides (TRIG) WK 3 ([4]; 50 mg/kg twice weekly): 19
plasma triglycerides (in words) ([4]; 12.5 to 50 mg/kg, three weeks): dose-dependent reductions in plasma triglycerides
% Inhib [1]: 74%
% Inhibition, target reduction in liver ([5]; 12.5 mg/kg twice weekly): 50%
% Inhibition, target reduction in liver ([5]; 25 mg/kg twice weekly): 62%
% Inhibition, target reduction in liver ([5]; 50 mg/kg twice weekly): 77%
target mRNA levels in rat liver (in words) ([5]; 12.5 to 50 mg/kg): effective in reducing target mRNA levels in rat liver in a dose-dependent manner

TGACTGCAGAAGTTTCCTGT (eT*eG*eA*e[5mC]*eT*dG*d[5mC]*dA*dG*dA*dA*dG*dT*dT*dT*e[5mC]*e[5mC]*eT*eG*eT; antisense) [ISIS 194838]
% Inhib [1]: 42%
% Inhib [2]: 91%
